Laboratory results reported in ChEMBL document CHEMBL3217665, “Amino-derivatives of the sesquiterpene lactone class of natural products as prodrugs” (Medchemcomm, 2013).
In brackets after ≈: the same amount, converted by molar mass.

Experiments:
P388 [1] = assay: Antitumor activity against mouse P388 cells allografted in DBA/2 mouse assessed as survival; type: functional
[2] = Antiproliferative activity against human Hep2 cells; type: functional; details: HEp-2, read-out: ED50 (the source's name)
Rattus norvegicus = species: Rattus norvegicus; assay: Gastroprotective activity in rat assessed as inhibition of HCl/ethyl alcohol-induced lesions; type: functional
[3] = Antiinflammatory activity in mouse macrophages assessed as LPS-induced nitric oxide production; type: functional, cell-based; details: Macrophage
Mus musculus = species: Mus musculus; assay: Gastroprotective activity in mouse assessed as inhibition of water-immersion-induced lesions; type: functional
NCI-H520 = assay: Antiproliferative activity against human NCI-H520 cells; type: functional, cell-based
A549 = assay: Antiproliferative activity against human A549 cells; type: functional, cell-based
P388 [4] = assay: Antiproliferative activity against mouse P388 cells; type: functional, cell-based
MCF7 = assay: Antiproliferative activity against human MCF7 cells; type: functional, cell-based
[5] = Cmax in mouse at 40 mg/kg, po; type: ADME, organism-based; design: dose 40 mg/kg, route oral; details: in vivo
[6] = Half life in dog at 100 mg/kg, po; type: ADME, organism-based, Canis lupus familiaris; design: dose 100 mg/kg, route oral; details: in vivo
[7] = Cmax in dog at 100 mg/kg, po; type: ADME, organism-based, Canis lupus familiaris; design: dose 100 mg/kg, route oral; details: in vivo
[8] = Half life in mouse at 100 mg/kg, po; type: ADME, organism-based; design: dose 100 mg/kg, route oral; details: in vivo
[9] = Cmax in mouse at 100 mg/kg, po; type: ADME, organism-based; design: dose 100 mg/kg, route oral; details: in vivo
[10] = Oral bioavailability in mouse at 100 mg/kg; type: ADME, organism-based; details: in vivo
[11] = Oral bioavailability in dog at 100 mg/kg; type: ADME, organism-based, Canis lupus familiaris; details: in vivo

`C=C1C(=O)O[C@@H]2C[C@@H](C)[C@@H]3C=CC(=O)[C@@]3(C)[C@@H](O)[C@H]12` [HELENALIN] gave a Survival (P388 [1]) of 13.4 days and an EC50 [2] of 0.083 µg/mL (≈ 0.316 µM).
In the case of `C[C@@H]1C[C@H]2OC(=O)C(CN(C)C)[C@H]2[C@H](O)[C@]2(C)C(=O)CC[C@@H]12` (stereo partly specified), the EC50 [2] is reported as 6.04 µg/mL (≈ 19.5 µM).
With `C=C1CC[C@H]2C(=C)CC[C@@H]3[C@H](OC(=O)[C@H]3CN3CCC[C@H]3C(=O)O)[C@@H]12` the “inhibition (INH)” value (Rattus norvegicus) was 87%, the IC50 [3] was 2.8 µg/mL (≈ 8.11 µM) and the “inhibition (INH)” value (Mus musculus) was 19%.
With `C=C1CC[C@H]2C(=C)CC[C@H]3C(=C)C(=O)O[C@@H]3[C@@H]12` [DEHYDROCOSTUSLACTONE] the “inhibition (INH)” value (Rattus norvegicus) was 96.2%, the IC50 [3] was 1.2 µg/mL (≈ 5.21 µM) and the “inhibition (INH)” value (Mus musculus) was 19%.
With `C=C1CC[C@H]2C(=C)CC[C@@H]3[C@H](OC(=O)[C@H]3CN[C@@H](CC(N)=O)C(=O)O)[C@@H]12` the “inhibition (INH)” value (Rattus norvegicus) was 68.1%, the IC50 [3] was 16 µg/mL (≈ 44.1 µM) and the “inhibition (INH)” value (Mus musculus) was 4.7%.
In the case of `C=C1C(=O)O[C@@H]2/C=C(\C)CC/C=C(\C)CC[C@@H]12` [COSTUNOLIDE], the “inhibition (INH)” value (Rattus norvegicus) is reported as 93.2%, the IC50 [3] is reported as 1.2 µg/mL (≈ 5.17 µM) and the “inhibition (INH)” value (Mus musculus) is reported as 14.3%.
Work on `C=C1CCC[C@]2(C)C[C@H]3OC(=O)[C@@H](CN(CC)CC)[C@H]3C[C@@H]12` yielded an IC50 (NCI-H520) of 0.9 µM, an IC50 (A549) of 0.8 µM and an IC50 (P388 [4]) of 0.3 µM. It also gave an IC50 (MCF7) of 0.8 µM.
For `C/C1=C\[C@H]2OC(=O)[C@@H](CN3CCC[C@H]3C(=O)O)[C@@H]2CC/C(C)=C/CC1`, the “inhibition (INH)” value (Rattus norvegicus) was 59.8%, the IC50 [3] was 2.8 µg/mL (≈ 8.06 µM) and the “inhibition (INH)” value (Mus musculus) was 57%.
With `C[C@@H]1C[C@H]2OC(=O)C(CN(C)C)[C@H]2[C@H](O)[C@]2(C)C(=O)C=C[C@@H]12` (stereo partly specified) the Survival (P388 [1]) was 13 days and the EC50 [2] was 0.604 µg/mL (≈ 1.96 µM).
`C=C1C(=O)O[C@@H]2C[C@@]3(C)CCCC(=C)[C@@H]3C[C@H]12` [ISOALANTOLACTONE] showed an IC50 (NCI-H520) of 0.9 µM, an IC50 (A549) of 0.6 µM and an IC50 (P388 [4]) of 0.4 µM. The IC50 (MCF7) was 0.6 µM.
In the case of `C=C1C(=O)O[C@@H]2C[C@@H](C)[C@@H]3CCC(=O)[C@@]3(C)[C@@H](O)[C@H]12`, the EC50 [2] is reported as 3.83 µg/mL (≈ 14.5 µM).
Compound `C/C1=C\CC[C@@]2(C)O[C@@H]2[C@H]2OC(=O)[C@@H](CN(C)C)[C@@H]2CC1` has a Cmax [5] of 0.2 µM, a half-life [6] of 1.9 h and a Cmax [7] of 61 µM. For the same compound, the half-life [8] was 0.63 h, the Cmax [9] was 25 µM and the bioavailability [10] was 70%. For the same compound, the bioavailability [11] was 70%.
